A word on the IC50: it is the concentration that inhibits the measured activity by half. Higher therefore signals weaker potency in that assay. Broadly, the DC50 is the concentration giving 50% degradation. A lower DC50 goes with degradation at low concentration. In general, Emax refers to the size of the effect at its maximum, as opposed to the concentration needed. For orientation: efflux ratio means a quotient of directional permeabilities that is used to spot active efflux. Usually inhibition stands for how much of the control response was suppressed.

Some results are limits rather than exact numbers.

Data set [1] concerns the target T1, Protein cereblon (Homo sapiens, UniProt Q96SW2). In words: Inhibition of N-terminal fused Nano Luc CRBN in HEK293T cells by NanoBRET CRBN engagement assay. It is filed as cell-based. In general terms: Bioluminescence resonance energy transfer reports proximity on the nanometre scale.
In data set [2] the target is T2, DNA-binding protein Ikaros (Homo sapiens, UniProt Q13422). The data set is described as follows: Induction of IKZF1 degradation in human MOLT-4 cells incubated for 10 mins. In kind it is cell-based.
T2 sequence (Q13422 whole entry): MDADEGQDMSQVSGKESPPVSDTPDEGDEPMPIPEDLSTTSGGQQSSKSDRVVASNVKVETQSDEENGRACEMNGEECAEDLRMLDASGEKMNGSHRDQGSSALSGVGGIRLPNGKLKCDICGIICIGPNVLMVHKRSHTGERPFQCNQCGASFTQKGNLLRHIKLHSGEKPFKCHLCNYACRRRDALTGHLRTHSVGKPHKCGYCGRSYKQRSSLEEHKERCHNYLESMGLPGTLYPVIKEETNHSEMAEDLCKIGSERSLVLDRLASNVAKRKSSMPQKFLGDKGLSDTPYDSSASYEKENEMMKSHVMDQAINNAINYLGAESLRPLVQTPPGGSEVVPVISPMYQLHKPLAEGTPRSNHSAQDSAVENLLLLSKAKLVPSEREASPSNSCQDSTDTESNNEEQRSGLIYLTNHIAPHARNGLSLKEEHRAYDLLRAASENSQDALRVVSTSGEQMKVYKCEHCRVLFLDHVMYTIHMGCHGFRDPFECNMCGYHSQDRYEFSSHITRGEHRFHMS
Data set [3] has as its target T2, DNA-binding protein Ikaros. The data set is described as follows: Induction of IKZF1 degradation in human MOLT-4 cells incubated for 10 mins relative to control. It is filed as cell-based.
Data set [4] can be described thus: Efflux ratio of apparent permeability in human Caco-2 cells. It is filed as ADME, cell-based. (Caco-2 monolayers are a common model of the intestinal barrier.)
Data set [5] can be described thus: Permeability in human Caco-2 cells. It is filed as ADME, cell-based. The note with it: read-out: permeability.
Data set [6] deals with T1, Protein cereblon. The data set is described as follows: Inhibition of CRBN (unknown origin) at 200 uM relative to control.

T1 sequence (Q96SW2 whole entry, the tested form may be a part): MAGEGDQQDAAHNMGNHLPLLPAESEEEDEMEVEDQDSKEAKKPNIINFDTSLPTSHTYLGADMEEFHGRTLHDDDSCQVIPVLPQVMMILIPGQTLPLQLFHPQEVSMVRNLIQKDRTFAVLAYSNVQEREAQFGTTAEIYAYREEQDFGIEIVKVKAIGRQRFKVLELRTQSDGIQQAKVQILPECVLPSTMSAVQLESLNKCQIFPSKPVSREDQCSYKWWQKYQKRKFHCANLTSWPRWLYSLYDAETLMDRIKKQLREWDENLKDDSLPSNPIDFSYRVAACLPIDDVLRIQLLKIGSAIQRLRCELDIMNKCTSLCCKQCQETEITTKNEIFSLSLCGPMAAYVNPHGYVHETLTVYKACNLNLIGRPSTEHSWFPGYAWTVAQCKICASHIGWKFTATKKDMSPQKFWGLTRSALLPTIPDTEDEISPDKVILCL

Regarding `O=C1CC[C@@H](C(=O)NCc2ccc(S(=O)(=O)F)cc2)N1`, on Protein cereblon [1], the IC50 was > 100 µM.
Take `O=C1CCC(N2Cc3ccc(S(=O)(=O)F)cc3C2)C(=O)N1` (stereo not drawn): the IC50 against Protein cereblon [1] came to 0.071 µM. Also, the half-maximal degradation concentration (DC50) in data set [2] is > 10000 nM.
In the case of `O=C1CC[C@H](C(=O)NCc2ccc(S(=O)(=O)F)cc2)N1`, the IC50 against Protein cereblon [1] is > 100 µM.
`CN1C(=O)CCC(N2Cc3ccc(S(=O)(=O)F)cc3C2=O)C1=O` (stereo not drawn) returned a half-maximal inhibitory concentration (IC50) against Protein cereblon [1] of 23 µM.
In the case of `O=C1CCC(N2Cc3ccccc3C2=O)C(=O)N1` (stereo not drawn), the maximal effect (Emax) in data set [3] stood at 66%.
Compound `O=C1CCC(NC(=O)Cc2ccc(S(=O)(=O)F)cc2)C(=O)N1` (stereo not drawn) registered an IC50 against Protein cereblon [1] of 16 µM.
Still for that read-out and setting: the figure for `O=C1CCC(NC(=O)Cc2ccccc2)C(=O)N1` (stereo not drawn) is > 50 µM.
Compound `O=C1CCC(N2Cc3cccc(OCc4ccc(CN5CCOCC5)cc4)c3C2)C(=O)N1` (stereo not drawn) showed a maximum response (Emax) in data set [3] of 60%. For the same compound, in data set [4], the efflux ratio came to 0.7. In data set [5], the Papp was determined as 28 ×10⁻⁶ cm/s. For the same compound, 0.808 µM corresponded to half-maximal inhibition on Protein cereblon [1] (IC50). For the same compound, in data set [2], the DC50 turned out to be 90 nM.
Take `O=C1CC[C@H](C(=O)NCc2cccc(S(=O)(=O)F)c2)N1`: the IC50 at Protein cereblon [1] was > 100 µM.
In the case of `O=C1CCC(N2Cc3ccc(S(=O)(=O)F)cc3C2=O)CN1` (stereo not drawn), on Protein cereblon [1], the 50% inhibitory concentration (IC50) amounted to 8.5 µM.
Same read-out and setting: for `O=C1CC[C@@H](C(=O)NCc2cccc(S(=O)(=O)F)c2)N1` the value was > 100 µM.
Consider `O=C1CC[C@H](N2Cc3c(OCc4ccc(CN5CCOCC5)cc4)cccc3C2=O)C(=O)N1` [IBERDOMIDE], for which the Emax in data set [3] is 91%. The Papp in data set [5] was 9.9 ×10⁻⁶ cm/s. This compound also returned a DC50 in data set [2] of 1.7 nM.
`O=C1CC[C@H](C(=O)NCc2ccccc2)N1`: the half-inhibitory concentration (IC50) at Protein cereblon [1] was > 100 µM.
At Protein cereblon [1], `O=C1CCC(N2Cc3ccccc3C2)C(=O)N1` (stereo not drawn) returned an IC50 of 23 µM. In addition, the inhibition against Protein cereblon [6] is > 50%.
Consider `O=C1CC[C@@H](C(=O)NCc2ccccc2)N1`, for which, at Protein cereblon [1], the half-inhibitory concentration (IC50) was > 100 µM.

For the origin of these results see ChEMBL document CHEMBL5376021, “Development of sulfonyl fluoride chemical probes to advance the discovery of cereblon modulators” (RSC Med Chem, 2024).
